According to patent publication US20180057505A1, “BICYCLIC HETEROARYL COMPOUNDS USEFUL AS INHIBITORS OF THE PAR-2 SIGNALING PATHWAY” (VERTEX PHARMACEUTICALS INCORPORATED, priority 2015, published 2018):

Experiments:
Format in all cases: cell-based
[1] = tested on: UTP-stimulated Ca2+ response in HT-29 cells; experiment: Ca FLIPR TETRA assay, ANTAGONIST mode, activator 0.6 μM UTP; conditions: for IC50: HT-29 cells, activator 0.6 μM UTP; for inhibition at 50 µM: HT-29
Procedure, shortened: (§1)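 Fluorescent Ca2+ dye (calcium 5) loading of overnight-plated HT-29 cells preceded compound addition and a 30 min room-temperature incubation. Responses to the specified activator concentration were then read by FLIPR Tetra in the same plate.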

PAR2 (HT-29 cells) [2] = target: T1, PAR2 (HT-29 cells) (Homo sapiens, UniProt P55085); experiment: Ca FLIPR TETRA assay, ANTAGONIST mode, activator 8 μM SLIGKV; conditions: HT-29 cells, activator 8 μM SLIGKV
T1 construct: host or cells: HT-29
T1 sequence (P55085 26-397): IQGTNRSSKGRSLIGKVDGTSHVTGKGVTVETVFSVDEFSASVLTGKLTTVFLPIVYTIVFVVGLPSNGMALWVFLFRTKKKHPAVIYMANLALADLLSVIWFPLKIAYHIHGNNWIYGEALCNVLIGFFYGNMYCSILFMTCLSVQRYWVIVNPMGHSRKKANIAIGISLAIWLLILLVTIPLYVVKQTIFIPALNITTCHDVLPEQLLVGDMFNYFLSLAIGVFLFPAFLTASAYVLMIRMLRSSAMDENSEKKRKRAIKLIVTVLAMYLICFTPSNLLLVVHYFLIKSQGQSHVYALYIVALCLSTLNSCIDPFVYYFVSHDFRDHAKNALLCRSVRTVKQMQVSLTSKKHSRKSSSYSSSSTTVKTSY
Procedure, shortened: as §1

[3] = tested on: Thrombin-stimulated Ca2+ response in HT-29 cells; experiment: Ca FLIPR TETRA assay, ANTAGONIST mode, activator 1 U/mL Thrombin; conditions: HT-29 cells, activator 1 U/mL Thrombin
Procedure, shortened: as §1

PAR2 (HT-29 cells) [4] = target: T1, PAR2 (HT-29 cells); experiment: Ca FLIPR TETRA assay, ANTAGONIST mode, activator 3.1 U/mL trypsin; conditions: HT-29 cells, activator 3.1 U/mL trypsin
Procedure, shortened: as §1

[5] = Method A: maximal concentration of antagonist 0.1, 1 or 2 μM
[6] = maximal antagonist concentration per Method (A: 0.1, 1 or 2 μM; B: 50 μM)

IC50 ([1]; Homo sapiens) | IC50 (PAR2 (HT-29 cells) [2]; [5]) | IC50 ([3]; Homo sapiens) | IC50 (PAR2 (HT-29 cells) [4]; [5]) | IC50 (PAR2 (HT-29 cells) [2]; [6]) | IC50 (PAR2 (HT-29 cells) [4]; [6]) | IC50 [1] | IC50 [3] | SMILES | inhibition at 50 µM ([1]; Homo sapiens)
> 2000 nM | 460 nM | > 2000 nM | 590 nM |  |  |  |  | CC(C)(C)c1cc(C2CC3(CCC3)C2)nc2cc(C(=O)N3CCN(C(=O)[C@@H]4COCCN4)CC3(C)C)oc12 [Example I-447] | 
> 1000 nM |  | > 1000 nM |  | 0.7 nM | 1 nM |  |  | Cc1cc(C(=O)N2CCN(C(=O)c3cc4nc(-c5ccc(F)cc5)cc(C(C)(C)C)c4o3)C(C)(C)C2)no1 [Example I-186] | 
> 1000 nM |  | > 1000 nM |  | 18 nM | 26 nM |  |  | CC(C)(C)c1cc(-c2ccc(C(F)(F)F)cc2)nc2cc(C(=O)N3CCNC(=O)C3(C)C)oc12 [Example I-156] | 
> 2000 nM |  | > 2000 nM |  | 36 nM | 44 nM |  |  | CC(C)(C)c1cc(C2CCC(Cl)(Cl)CC2)nc2cc(C(=O)N3CCNC(=O)C3(C)C)oc12 [Example I-218] | 
 |  | 2600 nM |  | 730 nM | 830 nM |  |  | CC(C)c1cc(-c2ccc(F)cc2)nc2cc(C(=O)N3CCN(C(=O)[C@H](O)CC(C)(C)C)C[C@@H]3C)oc12 [Example I-104] | 64%
660 nM | 1.8 nM | 350 nM | 1.3 nM |  |  |  |  | CC(C)(C)c1cc(-c2ccc(Cl)c(F)c2)nc2cc(C(=O)N3CCN(c4cccc(C(=O)O)n4)C(=O)C3(C)C)oc12 [Example I-459] | 
> 2000 nM | 290 nM | > 2000 nM | 500 nM |  |  |  |  | CN(CC(=O)O)CC(=O)N1CCN(C(=O)c2cc3nc(-c4ccc(Cl)cc4)cc(C(C)(C)C)c3o2)C(C)(C)C1 [Example I-347] | 
> 2000 nM |  | > 2000 nM |  | 18 nM | 61.5 nM |  |  | CC1(C)CCC(c2cc(C(C)(C)C)c3oc(C(=O)N4CCN(c5ccn[nH]5)C(=O)C4(C)C)cc3n2)CC1 [Example I-283, 4-[7-tert-butyl-5-(4,4-dimethylcyclohexyl)furo[3,2-b]pyridine-2-carbonyl]-3,3-dimethyl-1-(1H-pyrazol-5-yl)piperazin-2-one] | 
> 2000 nM | 0.9 nM | > 2000 nM | 2.7 nM |  |  |  |  | CC(C)(C)c1cc(-c2ccc(Cl)c(F)c2)nc2cc(C(=O)N3CCN(c4ccc(F)c(C(=O)O)n4)CC3(C)C)oc12 [Example I-381] | 
> 2000 nM | 6.4 nM | > 2000 nM | 7.8 nM |  |  |  |  | CC(C)(C)c1cc(N2CCC(C(F)(F)F)CC2)nc2cc(C(=O)N3CCN(C(=O)[C@H]4C[C@](C)(O)C4)CC3(C)C)oc12 [Example I-437] | 
> 2000 nM | 5.7 nM | > 2000 nM | 6.2 nM |  |  |  |  | CC(C)(C)c1cc(-c2ccc(Cl)c(F)c2)nc2cc(C(=O)N3CCN(c4nccnc4C(=O)O)CC3(C)C)oc12 [Example I-470] | 
 |  | > 50000 nM |  | 390 nM | 530 nM |  |  | CC(C)c1cc(-c2ccc(F)cc2)nc2cc(C(=O)N3CCN(C(=O)c4ccno4)[C@@H](C)C3)oc12 [Example I-86] | 60%
17000 nM |  | 8500 nM |  | 2.4 nM | 4.2 nM |  |  | CC(C)c1cc(-c2ccc(F)cc2)nc2cc(C(=O)N3CCN(C(=O)c4ccon4)CC3(C)C)oc12 [Example I-73] | 
> 1100 nM | 0.5 nM | > 1100 nM | 1.1 nM |  |  |  |  | CC(C)(CN1CCN(C(=O)c2cc3nc(-c4ccc(Cl)c(F)c4)cc(C(C)(C)C)c3o2)C(C)(C)C1=O)C(=O)O [Example I-484] | 
> 2000 nM | 3.2 nM | > 2000 nM | 4.2 nM |  |  |  |  | CC(C)(C)c1cc(-c2ccc(Cl)c(F)c2)nc2cc(C(=O)N3CCN(c4cnc(C(=O)O)cn4)CC3(C)C)oc12 [Example I-456] | 
860 nM | 0.7 nM | 1010 nM | 0.9 nM |  |  |  |  | CC(C)(C)c1cc(-c2ccc(Cl)cc2)nc2cc(C(=O)N3CCN(c4cncc(C(=O)O)n4)CC3(C)C)oc12 [Example I-463] | 
13000 nM |  | 11000 nM |  | 5.3 nM | 7.7 nM |  |  | CC(C)c1cc(-c2ccc(F)cc2)nc2cc(C(=O)N3CCN(C(=O)[C@H](O)C(C)C)CC3(C)C)oc12 [Example I-74] | 
> 2000 nM | 94 nM | > 2000 nM | 90 nM |  |  |  |  | Cn1nccc1S(=O)(=O)N1CCN(C(=O)c2cc3nc(-c4ccc(Cl)c(F)c4)cc(C(C)(C)C)c3o2)C(C)(C)C1=O [Example I-342] | 

IC50 ([1]; Homo sapiens) | IC50 (PAR2 (HT-29 cells) [2]; [5]) | IC50 ([3]; Homo sapiens) | IC50 (PAR2 (HT-29 cells) [4]; [5]) | IC50 (PAR2 (HT-29 cells) [2]; [6]) | IC50 (PAR2 (HT-29 cells) [4]; [6]) | IC50 [1] | IC50 [3] | SMILES | inhibition at 50 µM ([1]; Homo sapiens)
> 2000 nM |  | > 2000 nM |  | 22 nM | 38 nM |  |  | CC(C)(C)c1cc(C2CCC(F)(F)CC2)nc2cc(C(=O)N3CCN(C(=O)[C@H]4C[C@@](C)(O)C4)CC3(C)C)oc12 [Example I-234] | 
> 50000 nM |  | > 50000 nM |  | 6.9 nM | 8.2 nM |  |  | CC1(C(=O)N2CCN(C(=O)c3cc4nc(-c5ccc(F)cc5)cc(C5(C)CC5)c4o3)C(C)(C)C2)CCCCC1 [Example I-43] | 
> 2000 nM | 23 nM | > 2000 nM | 24 nM |  |  |  |  | Cc1ccnc(N2CCN(C(=O)c3cc4nc(-c5ccc(Cl)cc5)cc(C(C)(C)C)c4o3)C(C)(C)C2)n1 [Example I-403] | 
> 500 nM | 1.9 nM | > 500 nM | 4.1 nM |  |  |  |  | Cc1nc(N2CCN(C(=O)c3cc4nc(-c5ccc(Cl)cc5)cc(C(C)(C)C)c4o3)C(C)(C)C2)oc1C(=O)O [Example I-478] | 
> 2000 nM | 2.8 nM | > 2000 nM | 4.6 nM |  |  |  |  | CC(C)(C)c1cc(-c2ccc(Cl)c(F)c2)nc2cc(C(=O)N3CCN(c4ncccn4)C(=O)C3(C)C)oc12 [Example I-361] | 
> 2000 nM | 22 nM | > 2000 nM | 23 nM |  |  |  |  | Cc1nccc(N2CCN(C(=O)c3cc4nc(-c5ccc(Cl)cc5)cc(C(C)(C)C)c4o3)C(C)(C)C2)n1 [Example I-389] | 
 | 81 nM |  | 83 nM |  |  | > 2000 nM | > 2000 nM | CC(C)(C)c1cc(C2CCC(F)(F)CC2)nc2cc(C(=O)N3CCN(C(=O)c4nnc[nH]4)CC3(C)C)oc12 [Example I-311] | 
29000 nM |  | 25000 nM |  | 18000 nM | 16000 nM |  |  | CC(C)c1cc(-c2ccc(F)cc2)nc2cc(C(=O)N3CCN(C(=O)[C@@H](C)O)CC3)oc12 [Example I-93] | 
> 2000 nM | 170 nM | > 2000 nM | 260 nM |  |  |  |  | CN1CCN(C(=O)c2cc3nc(C4CCC(F)(F)CC4)cc(C(C)(C)C)c3o2)C(C)(C)C1=O [Example I-312] | 
11000 nM |  | 9400 nM |  | 3300 nM | 3800 nM |  |  | CC(C)c1cc(-c2ccc(F)cc2)nc2cc(C(=O)N3CCN(C(=O)C4(O)CCOCC4)[C@@H](C)C3)oc12 [Example I-91] | 
> 2000 nM |  | > 2000 nM |  | 18 nM | 28 nM |  |  | [2H]C([2H])([2H])N1CCN(C(=O)c2cc3nc(-c4cccc(Cl)c4)cc(C(C)(C)C)c3o2)C(C)(C)C1=O [Example I-238] | 
> 2000 nM | 17 nM | > 2000 nM | 17 nM |  |  |  |  | CC(C)(C)c1cc(-c2ccc(Cl)cc2)nc2cc(C(=O)N3CCN(c4ccn[nH]4)C(=O)C3(C)C)oc12 [Example I-407] | 
710 nM | 0.3 nM | 960 nM | 0.5 nM |  |  |  |  | Cc1cc(C(=O)O)nc(N2CCN(C(=O)c3cc4nc(-c5ccc(Cl)cc5)cc(C(C)(C)C)c4o3)C(C)(C)C2)n1 [Example I-401] | 
> 2000 nM | 31 nM | > 2000 nM | 45 nM |  |  |  |  | CC(C)(C)c1cc(-c2ccc(Cl)c(F)c2)nc2cc(C(=O)N3CCN(C(=O)NS(C)(=O)=O)CC3(C)C)oc12 [Example I-527] | 
> 1000 nM |  | > 1000 nM |  | 4.9 nM | 3 nM |  |  | CC(C)(C)c1cc(-c2ccc(Cl)cc2)nc2cc(C(=O)N3CCNC(=O)C3(C)C)oc12 [Example I-153, 4-[7-tert-butyl-5-(4-chlorophenyl)furo[3,2-b]pyridine-2-carbonyl]-3,3-dimethyl-piperazin-2-one] | 
20000 nM |  | 19000 nM |  | 68 nM | 64 nM |  |  | CC(C)c1cc(-c2ccc(F)cc2)nc2cc(C(=O)N3CCN(C(=O)C(C)(C)O)CC3(C)C)oc12 [Example I-1] | 
> 2000 nM |  | > 2000 nM |  | 2.5 nM | 4.8 nM |  |  | CC[C@@H](C)c1cc(-c2ccc(F)cc2)nc2cc(C(=O)N3CCNC(=O)C3(C)C)oc12 [Example I-245] | 
